The target in one test is T1, ZO-1 d2 (Homo sapiens, UniProt Q07157, DEL264-264).
T1 construct: made in house; host or cells: E. coli (DH5alpha, BL21 or JM109)
T1 sequence (Q07157 with tags, fused parts or gaps DEL264-264): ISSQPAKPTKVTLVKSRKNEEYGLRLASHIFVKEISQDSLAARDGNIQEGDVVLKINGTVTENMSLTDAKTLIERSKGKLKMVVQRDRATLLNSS
Kind of test: G3 assay titration, GST-PDZ fusion / biotinylated peptide. Type of test: binding. On the procedure: (§1) The G3 assay is identical to the G0 assay with the following exceptions. The peptides are typically present at 0.1 μM rather than 20 μM. The peptides are also pre-incubated with the HRP-streptavidin prior to adding to the assay plate. In the G0 assay, free peptide is incubated with the PDZ proteins prior to the addition of the HRP-streptavidin. Thus, for the G0 assay one can lose signal if the bound peptide dissociates from the PDZ protein prior to the addition of the HRP-streptavidin. In the G3 modified assay the HRP-streptavidin/peptide complex is added to the plate in one step, thus increasing the likelihood that all the bound peptide will be bound to HRP-streptavidin. The G3 modified assay increases the chance of observing weak interactions.
(§2) This example describes assays to identify binding between TRPM7 and PDZ domains. GST-PDZ fusions are produced that each contain an entire PDZ domain (or multiple PDZ domains), the collection encompassing approximately 90% of all PDZ domains identified in the human genome. (See Table 5 and Section V (PDZ Proteins and PL Protein Interactions Disclosure). Biotinylated peptide corresponding to 11 residues of Tat coupled to the C-terminal 9 amino acids of TRPM7 ([…]; SEQ ID NO:258) is synthesized and purified by HPLC.
(§3) • Nunc MaxiSorp 96 well Immuno-plate, Nunc • PBS pH 7.4 (phosphate buffered saline, 8 g NaCl, 0.29 g KCl, 1.44 g Na2HPO4, 0.24 g KH2PO4, add H2O to 1 liter and pH 7.4; 0.2 μm filter) • Assay Buffer: 2% BSA in PBS (20 g of bovine serum albumin per liter PBS, fraction V, ICN Biomedicals, cat#IC15142983 • Goat anti-GST polyclonal Ab, stock 5 mg/ml, stored at 4° C., Amersham Pharmacia cat#27-4577-01 • Dilute 1:1000 in PBS, final concentration 5 μg/ml. • HRP-Streptavidin, 2.5 mg/2 ml stock stored at 4° C., Zymed cat#43-4323, dilute 1:2000 into Assay buffer, final concentration of […] • Wash Buffer, PBS • Biotinylated peptides (HPLC purified, stock solution stored in −20° C. freezer) • GST-PRISM proteins (stock stored at −80° C., after 1st thaw store in −10° C. freezer) • TMB (3,3′,5,5′, teramethylbensidine), tablets, Sigma cat.#T5525 • Per plate, dissolve 1 tablet in 1 ml DMSO, add 9 ml Citrate/Phosphate buffer pH 5.4 and 2 μL H2O2 • 0.1 M H2SO4, Sigma cat.#S1526 • 12-w multichannel pipettor & tips • 50 ml reagent reservoirs, Costar#4870 • 50, 15 ml polypropylene conical tubes • Costar Transtar 96 Costar #7605 • Transtar 96 Cartridge Costar #7610 • Molecular Devices microplate reader (450 & 650 nm filters) with SoftMax Pro software *When using reagents stored at or 4° C. or −20° C., remove & keep on ice
(§4) • 1. Coat plate with 100 μl of 5 μg/ml anti-GST, overnight at 4° C. • 2. Dump contents of plate & out tap dry on paper towels • 3. Block with 200 μl Assay Buffer for 2 hrs at room temperature • 4. Prepare proteins at 5 μg/ml in Assay Buffer • 5. Wash 3× with cold PBS (4° C.), avoiding letting the plates dry out • 6. Add proteins at 50 μl per well, incubate 1 to 2 hrs at 4° C. • 7. Prepare peptides to desired concentration in Assay Buffer • 8. Wash 3× with cold PBS (4° C.), avoiding letting the plates dry out • 9. Add HRP-Streptavidin/peptide complex [prepared by incubating for 20 minutes at room temperature HRP-Streptavidin (1:2000) with the desired biotin-peptide concentration for 20 minutes at room temperature] at 50 μl per well on ice • 10. Place at room temperature for exactly 30 minutes • 11. Promptly wash 5× with PBS at room temperature • 12. Add 100 μl/well TMB substrate (write time on plate) • 13. Incubate in dark at room temperature for a maximum of 30 minutes • 14. Read plate at 25 minutes (650 nm), optional • 15. Stop reaction with 100 μl of 0.18 M H2SO4, 30 minutes after adding TMB • Take last reading at 450 nm soon after stopping reaction
(§5) The G3 assay was performed using 0.1 μM peptide representing 11 amino acids of Tat fused to the final 9 amino acids of TRPM7 ([…]; SEQ ID NO:258). […]

A further test concerns the target T2, INADL d3 (Homo sapiens, UniProt Q8NI35).
T2 construct: made in house; host or cells: E. coli (DH5alpha, BL21 or JM109)
T2 sequence (Q8NI35 with tags, fused parts or gaps): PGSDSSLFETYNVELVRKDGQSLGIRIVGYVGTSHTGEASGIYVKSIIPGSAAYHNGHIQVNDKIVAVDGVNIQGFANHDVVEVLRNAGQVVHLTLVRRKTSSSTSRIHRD
The test is described as above. It counts as binding. On the procedure:
as §1, §2, §3, §4, §5

Residues, ends and D or L forms follow the SMILES beside them. No end group written: not given here. *: point of attachment. Biotin = O=C1N[C@H]2[C@H](CS[C@H]2CCCCC(=O)*)N1

What is called EC50 is the concentration giving half of the maximal effect. A low value points to an effect from little substance.

The molecule `CC[C@H](C)[C@H](NC(=O)[C@H](CO)NC(=O)[C@@H](NC(=O)[C@H](C)NC(=O)[C@H](C)NC(=O)[C@@H](NC(=O)[C@H](C)NC(=O)[C@H](CCCNC(=N)N)NC(=O)[C@H](CCCNC(=N)N)NC(=O)[C@H](CCCNC(=N)N)NC(=O)[C@H](CCC(N)=O)NC(=O)[C@H](CCCNC(=N)N)NC(=O)[C@H](CCCNC(=N)N)NC(=O)[C@H](CCCCN)NC(=O)[C@H](CCCCN)NC(=O)[C@H](CCCNC(=N)N)NC(=O)CNC(=O)[C@H](Cc1ccc(O)cc1)NC(=O)CCCC[C@@H]1SC[C@@H]2NC(=O)N[C@@H]21)C(C)C)[C@@H](C)O)C(=O)N[C@@H](CC(N)=O)C(=O)N[C@@H](CC(C)C)C(=O)O` [Peptide 1791] (Biotin-YGRKKRRQRRRAVAATSINL-OH) had an EC50 on ZO-1 d2 of less than 100 nM.

Turning to `CC[C@H](C)[C@H](NC(=O)[C@@H](NC(=O)[C@H](CCCNC(=N)N)NC(=O)[C@H](CC(=O)O)NC(=O)[C@H](CO)NC(=O)[C@H](CCCNC(=N)N)NC(=O)[C@H](C)NC(=O)[C@H](CCCNC(=N)N)NC(=O)[C@H](CCCNC(=N)N)NC(=O)[C@H](CCCNC(=N)N)NC(=O)[C@H](CCC(N)=O)NC(=O)[C@H](CCCNC(=N)N)NC(=O)[C@H](CCCNC(=N)N)NC(=O)[C@H](CCCCN)NC(=O)[C@H](CCCCN)NC(=O)[C@H](CCCNC(=N)N)NC(=O)CNC(=O)[C@H](Cc1ccc(O)cc1)NC(=O)CCCC[C@@H]1SC[C@@H]2NC(=O)N[C@@H]21)[C@@H](C)O)C(=O)N[C@H](C(=O)N[C@@H](C)C(=O)O)[C@@H](C)CC` [Peptide 1830] (Biotin-YGRKKRRQRRRARSDRTIIA-OH), the EC50 at INADL d3 is less than 2000 nM; on ZO-1 d2, less than 20 nM.

In the case of `CC[C@H](C)[C@H](NC(=O)[C@H](CCCCN)NC(=O)[C@H](CCCNC(=N)N)NC(=O)[C@H](CC(=O)O)NC(=O)CNC(=O)[C@H](CCCNC(=N)N)NC(=O)[C@H](C)NC(=O)[C@H](CCCNC(=N)N)NC(=O)[C@H](CCCNC(=N)N)NC(=O)[C@H](CCCNC(=N)N)NC(=O)[C@H](CCC(N)=O)NC(=O)[C@H](CCCNC(=N)N)NC(=O)[C@H](CCCNC(=N)N)NC(=O)[C@H](CCCCN)NC(=O)[C@H](CCCCN)NC(=O)[C@H](CCCNC(=N)N)NC(=O)CNC(=O)[C@H](Cc1ccc(O)cc1)NC(=O)CCCC[C@@H]1SC[C@@H]2NC(=O)N[C@@H]21)C(=O)N[C@@H](CCCNC(=N)N)C(=O)N[C@H](C(=O)O)C(C)C` [Peptide 1836] (Biotin-YGRKKRRQRRRARGDRKIRV-OH), the EC50 on ZO-1 d2 is less than 10 nM.

Consider `CC(C)[C@H](NC(=O)[C@H](CCC(=O)O)NC(=O)[C@@H](NC(=O)[C@H](CCCCN)NC(=O)[C@H](CCCNC(=N)N)NC(=O)[C@H](CC(=O)O)NC(=O)[C@@H](NC(=O)[C@H](CCCNC(=N)N)NC(=O)[C@H](C)NC(=O)[C@H](CCCNC(=N)N)NC(=O)[C@H](CCCNC(=N)N)NC(=O)[C@H](CCCNC(=N)N)NC(=O)[C@H](CCC(N)=O)NC(=O)[C@H](CCCNC(=N)N)NC(=O)[C@H](CCCNC(=N)N)NC(=O)[C@H](CCCCN)NC(=O)[C@H](CCCCN)NC(=O)[C@H](CCCNC(=N)N)NC(=O)CNC(=O)[C@H](Cc1ccc(O)cc1)NC(=O)CCCC[C@@H]1SC[C@@H]2NC(=O)N[C@@H]21)[C@@H](C)O)C(C)C)C(=O)O` [Peptide 1837] (Biotin-YGRKKRRQRRRARTDRKVEV-OH), for which the EC50 at ZO-1 d2 is less than 20 nM.

As for `CC[C@H](C)[C@H](NC(=O)[C@H](Cc1ccc(O)cc1)NC(=O)[C@H](CCCCN)NC(=O)[C@H](CCCNC(=N)N)NC(=O)[C@H](CC(=O)O)NC(=O)CNC(=O)[C@H](CCCNC(=N)N)NC(=O)[C@H](C)NC(=O)[C@H](CCCNC(=N)N)NC(=O)[C@H](CCCNC(=N)N)NC(=O)[C@H](CCCNC(=N)N)NC(=O)[C@H](CCC(N)=O)NC(=O)[C@H](CCCNC(=N)N)NC(=O)[C@H](CCCNC(=N)N)NC(=O)[C@H](CCCCN)NC(=O)[C@H](CCCCN)NC(=O)[C@H](CCCNC(=N)N)NC(=O)CNC(=O)[C@H](Cc1ccc(O)cc1)NC(=O)CCCC[C@@H]1SC[C@@H]2NC(=O)N[C@@H]21)C(=O)N[C@H](C(=O)O)C(C)C` [Peptide 1838] (Biotin-YGRKKRRQRRRARGDRKYIV-OH), the EC50 on INADL d3 and on ZO-1 d2 was less than 100 nM throughout.

In turn, `CC(C)[C@H](NC(=O)[C@@H]1CCCN1C(=O)[C@@H](NC(=O)[C@H](CCCCN)NC(=O)[C@H](CCCNC(=N)N)NC(=O)[C@H](CC(=O)O)NC(=O)CNC(=O)[C@H](CCCNC(=N)N)NC(=O)[C@H](C)NC(=O)[C@H](CCCNC(=N)N)NC(=O)[C@H](CCCNC(=N)N)NC(=O)[C@H](CCCNC(=N)N)NC(=O)[C@H](CCC(N)=O)NC(=O)[C@H](CCCNC(=N)N)NC(=O)[C@H](CCCNC(=N)N)NC(=O)[C@H](CCCCN)NC(=O)[C@H](CCCCN)NC(=O)[C@H](CCCNC(=N)N)NC(=O)CNC(=O)[C@H](Cc1ccc(O)cc1)NC(=O)CCCC[C@@H]1SC[C@@H]2NC(=O)N[C@@H]21)C(C)C)C(=O)O` [Peptide 1841] (Biotin-YGRKKRRQRRRARGDRKVPV-OH) showed an EC50 at ZO-1 d2 of less than 20 nM.

As to `CC(C)C[C@H](NC(=O)[C@H](CCCNC(=N)N)NC(=O)[C@@H](NC(=O)CNC(=O)[C@H](CCCNC(=N)N)NC(=O)[C@H](C)NC(=O)[C@H](CCCNC(=N)N)NC(=O)[C@H](CCCNC(=N)N)NC(=O)[C@H](CCCNC(=N)N)NC(=O)[C@H](CCC(N)=O)NC(=O)[C@H](CCCNC(=N)N)NC(=O)[C@H](CCCNC(=N)N)NC(=O)[C@H](CCCCN)NC(=O)[C@H](CCCCN)NC(=O)[C@H](CCCNC(=N)N)NC(=O)CNC(=O)[C@H](Cc1ccc(O)cc1)NC(=O)CCCC[C@@H]1SC[C@@H]2NC(=O)N[C@@H]21)[C@@H](C)O)C(=O)N[C@H](C(=O)N[C@@H](Cc1c[nH]c2ccccc12)C(=O)N[C@H](C(=O)O)C(C)C)C(C)C` [Peptide 1844] (Biotin-YGRKKRRQRRRARGTRLVWV-OH), the EC50 at INADL d3 and on ZO-1 d2 was less than 20 nM in each case.

On to `CC(C)[C@H](NC(=O)[C@H](Cc1c[nH]c2ccccc12)NC(=O)[C@@H](NC(=O)[C@H](CCC(=O)O)NC(=O)[C@H](CCCNC(=N)N)NC(=O)[C@H](CCCNC(=N)N)NC(=O)CNC(=O)[C@H](CCCNC(=N)N)NC(=O)[C@H](C)NC(=O)[C@H](CCCNC(=N)N)NC(=O)[C@H](CCCNC(=N)N)NC(=O)[C@H](CCCNC(=N)N)NC(=O)[C@H](CCC(N)=O)NC(=O)[C@H](CCCNC(=N)N)NC(=O)[C@H](CCCNC(=N)N)NC(=O)[C@H](CCCCN)NC(=O)[C@H](CCCCN)NC(=O)[C@H](CCCNC(=N)N)NC(=O)CNC(=O)[C@H](Cc1ccc(O)cc1)NC(=O)CCCC[C@@H]1SC[C@@H]2NC(=O)N[C@@H]21)[C@@H](C)O)C(=O)O` [Peptide 1854] (Biotin-YGRKKRRQRRRARGRRETWV-OH), for which, on INADL d3, the EC50 is less than 20 nM.

In the case of “Biotin-YGRKKRRQRRRSRTDRLEYV [Peptide 1846]”, the “ODmax (450 nm)” value at INADL d3 (Table 10, titration of peptides with INADL d3) came to 1.50.
